Assays:
Experiment in all cases: relative viability (nuclei count vs DMSO), 5 days (fraction); higher = more cells survive
AZD8055 + Foretinib = compound: COc1ccc(-c2ccc3c(N4CCOC[C@@H]4C)nc(N4CCOC[C@@H]4C)nc3n2)cc1CO [AZD8055] + COc1cc2c(Oc3ccc(NC(=O)C4(C(=O)Nc5ccc(F)cc5)CC4)cc3F)ccnc2cc1OCCCN1CCOCC1 [Foretinib] (partner 0.25 µM)
Method in brief: (§1)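 Lung cancer cell lines, seeded in 1536-well plates, were treated the following day by pin tool with a single drug or with five library-drug doses (not always all listed) in √10 steps on top of a fixed anchor-drug dose. Cells were fixed and nuclei stained in one step after 5 days, and nuclei were counted. Relative viability is the nuclei count for treated wells divided by that for vehicle wells, reported as medians of duplicate plates.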

AZD8055 + Alpelisib = compound: COc1ccc(-c2ccc3c(N4CCOC[C@@H]4C)nc(N4CCOC[C@@H]4C)nc3n2)cc1CO [AZD8055] + Cc1nc(NC(=O)N2CCC[C@H]2C(N)=O)sc1-c1ccnc(C(C)(C)C(F)(F)F)c1 [Alpelisib] (partner 2 µM)
Method in brief: as §1

AZD8055 + Pemetrexed = compound: COc1ccc(-c2ccc3c(N4CCOC[C@@H]4C)nc(N4CCOC[C@@H]4C)nc3n2)cc1CO [AZD8055] + Nc1nc2[nH]cc(CCc3ccc(C(=O)N[C@@H](CCC(=O)O)C(=O)O)cc3)c2c(=O)[nH]1 [Pemetrexed] (partner 0.2 µM)
Method in brief: as §1

AZD8055 + Olaparib = compound: COc1ccc(-c2ccc3c(N4CCOC[C@@H]4C)nc(N4CCOC[C@@H]4C)nc3n2)cc1CO [AZD8055] + O=C(c1cc(Cc2n[nH]c(=O)c3ccccc23)ccc1F)N1CCN(C(=O)C2CC2)CC1 [Olaparib] (partner 8 µM)
Method in brief: as §1

Cell Line	relative viability (AZD8055 + Foretinib; first compound 0.01 µM)	relative viability (AZD8055 + Foretinib; first compound 0.03162 µM)	relative viability (AZD8055 + Foretinib; first compound 0.1 µM)	relative viability (AZD8055 + Foretinib; first compound 0.3162 µM)	relative viability (AZD8055 + Foretinib; first compound 1 µM)	relative viability (AZD8055 + Alpelisib; first compound 0.01 µM)	relative viability (AZD8055 + Alpelisib; first compound 0.03162 µM)	relative viability (AZD8055 + Alpelisib; first compound 0.1 µM)	relative viability (AZD8055 + Alpelisib; first compound 0.3162 µM)	relative viability (AZD8055 + Alpelisib; first compound 1 µM)	relative viability (AZD8055 + Pemetrexed; first compound 0.01 µM)	relative viability (AZD8055 + Pemetrexed; first compound 0.03162 µM)	relative viability (AZD8055 + Pemetrexed; first compound 0.1 µM)	relative viability (AZD8055 + Pemetrexed; first compound 0.3162 µM)	relative viability (AZD8055 + Pemetrexed; first compound 1 µM)	relative viability (AZD8055 + Olaparib; first compound 0.01 µM)	relative viability (AZD8055 + Olaparib; first compound 0.03162 µM)	relative viability (AZD8055 + Olaparib; first compound 0.1 µM)	relative viability (AZD8055 + Olaparib; first compound 0.3162 µM)	relative viability (AZD8055 + Olaparib; first compound 1 µM)
NCI-H1975	0.86	0.73	0.459	0.284	0.24	0.454	0.365	0.259	0.249	0.231	0.311	0.301	0.264	0.206	0.167	0.976	0.677	0.464	0.221	0.189
UMC-11	1	0.8	0.555	0.292	0.297	1.06	0.737	0.549	0.232	0.22	0.76	0.629	0.525	0.302	0.264	0.376	0.323	0.335	0.223	0.269
A-427	0.954	0.983	0.856	0.491	0.416	1.22	0.999	0.939	0.674	0.519	1.04	0.895	0.835	0.555	0.587	0.718	0.695	0.611	0.529	0.431
LCLC-97TM1	0.963	0.74	0.671	0.417	0.529	0.233	0.179	0.135	0.14	0.135	0.18	0.158	0.168	0.168	0.132	0.413	0.308	0.216	0.105	0.0929
HCC-15	1.05	0.969	0.755	0.537	0.445	0.86	0.769	0.639	0.366	0.282	0.241	0.236	0.209	0.238	0.241	0.776	0.697	0.643	0.47	0.35
NCI-H647	1.18	0.941	0.61	0.405	0.229	0.987	0.623	0.332	0.208	0.167	0.207	0.155	0.133	0.166	0.122	0.7	0.416	0.301	0.227	0.169
SW 1573	0.86	0.645	0.803	0.516	0.251	0.707	0.51	0.55	0.301	0.211	0.938	0.728	0.653	0.285	0.18	0.555	0.417	0.325	0.17	0.16
NCI-H1651	0.702	0.774	0.575	0.363	0.263	1.04	0.716	0.671	0.405	0.325	0.645	0.585	0.477	0.388	0.367	0.193	0.191	0.193	0.222	0.25
NCI-H2023	0.787	0.817	0.654	0.26	0.126	0.439	0.431	0.311	0.141	0.141	0.229	0.205	0.16	0.0973	0.122	0.434	0.402	0.224	0.148	0.142
COR-L 105	1.55	1.03	1.31	0.756	0.476	0.975	0.737	0.798	0.271	0.315	1.3	1.16	1.29	0.664	0.485	0.738	0.741	0.707	0.455	0.448
NCI-H1734	0.893	0.748	0.565	0.312	0.221	0.762	0.554	0.378	0.226	0.23	0.45	0.375	0.41	0.385	0.323	0.675	0.555	0.458	0.298	0.199
NCI-H3122	0.97	1.02	1.05	0.396	0.401	0.737	0.541	0.34	0.309	0.251	0.229	0.228	0.231	0.227	0.225	0.775	0.697	0.689	0.338	0.283
CAL-12T	1.25	1.22	1.01	0.414	0.279	1.15	1.1	0.91	0.337	0.17	1.02	0.891	0.918	0.424	0.296	0.679	0.654	0.491	0.277	0.226
HCC-78	0.496	0.527	0.388	0.417	0.308	0.303	0.204	0.181	0.217	0.221	0.967	0.865	0.855	0.88	0.896	0.758	0.632	0.54	0.388	0.383
NCI-H2085	0.945	0.919	0.602	0.278	0.329	0.896	0.758	0.575	0.382	0.372	0.827	0.74	0.481	0.31	0.268	0.858	0.822	0.553	0.387	0.354
